{
  "source": "patent US20240269150A1",
  "about": "“WOUND TREATMENT COMPOSITION” (CS MEDICA A/S, priority 2021, published 2024)",
  "assay": "Comparison of compositions formulated with different crystalline CBDs",
  "type": "in vivo",
  "details": "compositions per Example 1 (formulation A or B) differing only in the crystalline CBD used",
  "source_text": "In some embodiments, CBD of crystal structure A (or capable of forming needle-like crystals) is at least 1.2, 1.5, 2, 3, 4, 5, 7.5, 10, 15 or 20 times more “potent” on a weight/weight basis than CBD of crystal structure B (or capable of forming cluster/bunch-like crystals). Often, the “A-type” CBD is at least 2.5, 5, 7.5, or 10 times more “potent” on a weight/weight basis than “B-type” CBD. The “potency” of “type A” CBD can e.g. be determined in measuring the time needed for wound and/or soar healing using essentially identical compositions with the exception of the type of CBD used. Alternatively, the potency can be determined in the quantity of CBD needed to provide the same effect, such as wound and/or sore healing time.\nTwo compositions are prepared according to Example 1, e.g. formulation A or B, the only difference being that the crystalline CBD used in the formulation is either of type A (needle-like crystals; FIG. 1) or type B (bunch/cluster-like; FIG. 2).\nType A crystalline CBD is sourced from Enecta, while type B CBD is sourced from Pharma Hemp.",
  "data": [
    {"smiles": "C=C(C)[C@@H]1CCC(C)=C[C@H]1c1c(O)cc(CCCCC)cc1O", "note": "[type A CBD, cannabidiol]", "values": [
      {"measurement": "Activity / potency of type A CBD relative to type B CBD", "result": "significantly more active than type B CBD"},
      {"measurement": "Activity / potency of type A CBD relative to type B CBD", "setting": "listed as CBD with a needle-like crystal structure", "result": "significantly more potent"}
    ]}
  ]
}
